# Results from patent US20170202844A1, “PEDIATRIC CHEWABLE TABLET CONTAINING ANTIVIRAL AGENT AND METHOD FOR THE PREPARATION THEREOF” (PHARMATHEN S.A., priority 2014, published 2017).
# Counter-ions that a name gives are not always drawn.
# Assays:
# [1] = cited from earlier work; for oral bioavailability of acyclovir: oral administration
# [2] = cited from earlier work
# [3] = Drug loading into ion exchange resin, evaluated spectrophotometrically; type: physicochemical; settings: for % w/w unbound drug: resin not named
# Procedure: Mediums of different pH were examined in order to achieve the maximum drug loading into the resin. For this reason, the pH of solutions was adjusted at 3, 4, 5, 6, and 7. The drug loaded was evaluated spectrophotometrically. […] Buffer pH=7 enhanced more the effect of drug loading.
# The next step was to examine the effect of drug loading into the resin for buffer pH=7 of different ion strength. For this reason, buffer pH=7 of normality 0.1N, 0.2N, 1N were prepared and the drug loaded was evaluated spectrophotometrically as before. Buffer pH=7 0.2N was the most suitable medium as the higher drug loading was reached. (61.60%±2.05%).
# At this point of studies, the research focused on the type of IER. For this reason, resins of different functional group were examined to reach the higher drug loading. […] As a result, Purolite C100CaMR and Indion 204 were the most preferred resins that could form hydrogen bonds with the cationic center of Valaciclovir and prevent the release in saliva.
drug loading ([3]; Buffer pH=7 0.2N),% w/w unbound drug ([3]; medium pH 3),% w/w unbound drug ([3]; medium pH 4),% w/w unbound drug ([3]; medium pH 5),% w/w unbound drug ([3]; medium pH 6),% w/w unbound drug ([3]; medium pH 7),% w/w unbound drug ([3]; water),Structure (SMILES),absorption from the gastrointestinal tract ([1]; after oral administration),conversion to acyclovir and L-valine ([1]; first-pass intestinal and/or hepatic metabolism),solubility in dichloromethane ([2]; dichloromethane),solubility in water ([2]; water),oral bioavailability of acyclovir [1],water solubility ([1]; in vivo)
61.60%±2.05%,79.85%±2.19%,75.24%±2.91%,66.69%±2.76%,61.19%±2.61%,30.91%±2.53%,72.61%±2.81%,"CC(C)[C@H](N)C(=O)OCCOCn1cnc2c(=O)[nH]c(N)nc21 [Valaciclovir hydrochloride, L-valine, 2-[(2-amino-1,6-dihydro-6-oxo-9H-purin-9-yl)methoxy] ethyl ester, mono hydrochloride]",rapidly absorbed,nearly completely converted,insoluble,soluble,–,–
–,–,–,–,–,–,–,"CC(C)[C@H](N)C(=O)OCCOCn1cnc2c(=O)[nH]c(N)nc21 [Valaciclovir, L-valyl acyclovir]",–,–,–,–,high bioavailability of acyclovir,–
–,–,–,–,–,–,–,Nc1nc2c(ncn2COCCO)c(=O)[nH]1 [acyclovir],–,–,–,–,poor oral bioavailability,poorly water soluble
